Measurements reported in patent US7135572B2 (CJ Corp, priority 2001, dated 2006).

Assays:
cyclooxygenase-1 = target: T1, cyclooxygenase-1 (Homo sapiens, UniProt P23219); assay: Inhibition of cyclooxygenase-1 in U-937 cells (PGE2 quantitation); assay type: cell-based; settings: for Inhibitory effects of cyclooxygenase (COX): COX-1: U-937 cells
T1 construct: The cultured U-937 (humane lymphoma cell, obtained from Korean cell line bank) was centrifuged to collect the pellet; endogenous in cells; host or cells: U-937 (human lymphoma cell line, Korean cell line bank)
Protocol: (§1) In order to investigate pharmacologically the selective inhibition activity against cyclooxygenase-2 enzyme, the inhibitive effects against cyclooxygenase-1 and cyclooxygenase-2 were measured by two methods as follows.
Then, the pellet was diluted with 1×HBSS(Hank's balanced salt solutin) at the concentration of 1×10^6 cells/ml, and 1 ml of them was transferred into each well of 12-well plates, and then dissolved with DMSO. 5μl of the diluted sample solution, and 5μl of DMSO vehicle were added therein and mixed, and the mixture was cultured at 37° C. in Co2 incubator for 15 minutes. Arachidonic acid as a substrate was dissolved in ethanol to prepare a stock solution with a concentration of 10 mM, followed by diluting with 1×HBSS to prepare the solution of 1 mM. 10 μl of 1 mM Arachidonic acid solution was added to each of the treated wells, and the mixture was cultured at 37° C. in CO2 incubator for 30 minutes. The cell solution of each well was collected in the centrifuge tube and was centrifuged at 4° C. for 5 minutes at 10,000 rpm. As PGE2 existed in the supernatant separated from collected cell, the concentration of PGE2 was quantitated by using monoclonal kit from Cayman Chemicals, and the concentration of samples and vehicle were compared to estimate the inhibition ratio (%) of each compound against cyclooxygenase-1. Ultimately, the inhibition effect against the cyclooxygenase-1 enzyme was obtained from the result.

cyclooxygenase-2 = target: T2, cyclooxygenase-2 (Mus musculus, UniProt Q05769); assay: Inhibition of cyclooxygenase-2 in Raw 264.7 cells treated with interferon γ and LPS (PGE2 EIA); assay type: cell-based; settings: for Inhibitory effects of cyclooxygenase (COX): COX-2: Raw 264.7 cells
T2 construct: endogenous in cells; host or cells: Raw 264.7 (Korean cell line bank), aspirin-pretreated, induced with interferon gamma and LPS
T2 sequence (Q05769 18-604): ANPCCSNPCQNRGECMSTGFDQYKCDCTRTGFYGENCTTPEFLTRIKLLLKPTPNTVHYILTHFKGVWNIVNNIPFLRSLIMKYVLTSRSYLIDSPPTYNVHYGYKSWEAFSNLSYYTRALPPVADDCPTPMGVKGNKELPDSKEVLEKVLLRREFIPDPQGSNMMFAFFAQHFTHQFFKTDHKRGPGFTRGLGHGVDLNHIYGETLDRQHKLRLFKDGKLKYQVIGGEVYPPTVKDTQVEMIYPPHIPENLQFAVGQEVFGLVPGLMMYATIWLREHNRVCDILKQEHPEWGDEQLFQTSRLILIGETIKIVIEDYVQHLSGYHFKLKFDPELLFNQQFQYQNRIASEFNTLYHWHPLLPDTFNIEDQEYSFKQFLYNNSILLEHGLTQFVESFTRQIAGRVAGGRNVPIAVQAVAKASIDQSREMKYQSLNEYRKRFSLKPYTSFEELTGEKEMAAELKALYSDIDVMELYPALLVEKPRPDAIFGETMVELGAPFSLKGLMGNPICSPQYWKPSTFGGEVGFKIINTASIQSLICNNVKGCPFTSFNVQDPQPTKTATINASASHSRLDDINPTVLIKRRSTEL
Protocol: as §1
And then, each samples were replaced with new media and cultured for 30 minutes. In addition, the samples was treated with 100 units/ml of interferon Υ and 100 ng/ml of lipopolysaccharide(LPS), and cultured for 18 hours. Then, the media was transferred to other tubes and the PGE 2 was quantitated by using EIA kit from Cayman Chemicals.

T1 sequence (P23219 24-599): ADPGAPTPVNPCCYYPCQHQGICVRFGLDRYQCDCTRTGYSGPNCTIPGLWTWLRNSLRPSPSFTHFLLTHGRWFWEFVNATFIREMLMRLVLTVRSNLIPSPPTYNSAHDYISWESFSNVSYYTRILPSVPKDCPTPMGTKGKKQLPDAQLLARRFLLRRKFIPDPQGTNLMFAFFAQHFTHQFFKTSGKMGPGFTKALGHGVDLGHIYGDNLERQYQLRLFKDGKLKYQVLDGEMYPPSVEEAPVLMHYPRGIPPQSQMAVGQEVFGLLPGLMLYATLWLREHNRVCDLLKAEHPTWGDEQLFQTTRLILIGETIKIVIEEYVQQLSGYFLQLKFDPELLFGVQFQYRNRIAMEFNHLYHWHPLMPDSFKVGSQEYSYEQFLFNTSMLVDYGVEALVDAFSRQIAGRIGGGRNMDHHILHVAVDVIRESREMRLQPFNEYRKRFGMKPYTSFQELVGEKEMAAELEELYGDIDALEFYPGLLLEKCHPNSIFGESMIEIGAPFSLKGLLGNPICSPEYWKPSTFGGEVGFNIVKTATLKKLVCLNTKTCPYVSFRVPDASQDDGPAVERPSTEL

SMILES	Inhibitory effects of cyclooxygenase (COX): COX-1 (cyclooxygenase-1; 3 μM)	Inhibitory effects of cyclooxygenase (COX): COX-1 (cyclooxygenase-1; 10 μM)	Inhibitory effects of cyclooxygenase (COX): COX-1 (cyclooxygenase-1; 30 μM)	inhibition effect against cyclooxygenase-1 compared with Celecoxib (in words) (cyclooxygenase-1; same condition as Celecoxib)	Inhibitory effects of cyclooxygenase (COX): COX-2 (cyclooxygenase-2; 30 nM)	Inhibitory effects of cyclooxygenase (COX): COX-2 (cyclooxygenase-2; 100 nM)	Inhibitory effects of cyclooxygenase (COX): COX-2 (cyclooxygenase-2; 300 nM)	selectivity of cyclooxygenase-2 compared with the comparative substance (in words) (cyclooxygenase-2; COX-2 versus COX-1)	inhibition effect against cyclooxygenase-2 compared with Celecoxib (in words) (cyclooxygenase-2; low concentration, same condition as Celecoxib)
Cc1ccc(-c2nc(C)nn2-c2ccc(S(N)(=O)=O)cn2)cc1 [Example 18, 6-(3-methyl-5-p-toly-[1,2,4]triazole-1-yl)-pyridine-3-sulfonic acid amide]	50.4 % inhibition	62.9 % inhibition	75.1 % inhibition		26.4 % inhibition	37.5 % inhibition	46.5 % inhibition		
COc1ccc(-c2nc(C)nn2-c2ccc(S(N)(=O)=O)cn2)cc1 [Example 19, 6-[5-(4-methoxy-phenyl)-3-mehtyl-[1,2,4]triazole-1-yl]-pyridine-3-sulfonic acid amide]	46.9 % inhibition	61.0 % inhibition	77.6 % inhibition		34.8 % inhibition	43.1 % inhibition	69.5 % inhibition		
Cc1nc(-c2cccc(F)c2)n(-c2ccc(S(N)(=O)=O)cn2)n1 [Example 20, 6-[5-(3-fluoro-phenyl)-3-mehtyl-[1,2,4]triazole-1-yl]-pyridine-3-sulfonic acid amide]	27.2 % inhibition	31.6 % inhibition	34.7 % inhibition		30.2 % inhibition	57.8 % inhibition	74.0 % inhibition		

Next, values leading:

Inhibitory effects of cyclooxygenase (COX): COX-1 (cyclooxygenase-1; 3 μM)	Inhibitory effects of cyclooxygenase (COX): COX-1 (cyclooxygenase-1; 10 μM)	Inhibitory effects of cyclooxygenase (COX): COX-1 (cyclooxygenase-1; 30 μM)	inhibition effect against cyclooxygenase-1 compared with Celecoxib (in words) (cyclooxygenase-1; same condition as Celecoxib)	Inhibitory effects of cyclooxygenase (COX): COX-2 (cyclooxygenase-2; 30 nM)	Inhibitory effects of cyclooxygenase (COX): COX-2 (cyclooxygenase-2; 100 nM)	Inhibitory effects of cyclooxygenase (COX): COX-2 (cyclooxygenase-2; 300 nM)	selectivity of cyclooxygenase-2 compared with the comparative substance (in words) (cyclooxygenase-2; COX-2 versus COX-1)	inhibition effect against cyclooxygenase-2 compared with Celecoxib (in words) (cyclooxygenase-2; low concentration, same condition as Celecoxib)	SMILES
12.8 % inhibition	20.4 % inhibition	28.9 % inhibition	much lower level	72.1 % inhibition	99.8 % inhibition	99.9 % inhibition	better than any other substances	more excellent	Cc1nc(-c2ccccc2)n(-c2ccc(S(N)(=O)=O)cn2)n1 [Example 14, 6-(3-methyl-5-phenyl-[1,2,4]triazole-1-yl)-pyridine-3-sulfonic acid amide]
35.7 % inhibition	41.0 % inhibition	46.9 % inhibition		27.1 % inhibition	28.8 % inhibition	38.9 % inhibition			Cc1nc(-c2ccc(F)cc2)n(-c2ccc(S(N)(=O)=O)cn2)n1 [Example 15, 6-[5-(4-fluoro-phenyl)-3-methyl-[1,2,4]triazole-1-yl]-pyridine-3-sulfonic acid amide]
24.5 % inhibition	43.2 % inhibition	55.1 % inhibition		32.4 % inhibition	34.1 % inhibition	85.2 % inhibition			Cc1nc(-c2ccc(Cl)cc2)n(-c2ccc(S(N)(=O)=O)cn2)n1 [Example 16, 6-[5-(4-chloro-phenyl)-3-methyl-[1,2,4]triazole-1-yl]-pyridine-3-sulfonic acid amide]
5.6 % inhibition	28.7 % inhibition	32.7 % inhibition		47.8 % inhibition	66.9 % inhibition	78.2 % inhibition			Cc1nc(-c2ccc(Br)cc2)n(-c2ccc(S(N)(=O)=O)cn2)n1 [Example 17, 6-[5-(4-bromo-phenyl)-3-methyl-[1,2,4]triazole-1-yl]-pyridine-3-sulfonic acid amide]
